Test results taken from paper PMC6936348, “Reactivation of Epstein–Barr virus by a dual-responsive fluorescent EBNA1-targeting agent with Zn^2+-chelating function” (Proceedings of the National Academy of Sciences of the …, 2019).

Assays:
[1] = test system: EBV-infected cells; settings: peptide P4; cited from earlier work
Excerpt: (§1) Epstein–Barr nuclear antigen 1 (EBNA1) is the only viral protein expressed in nearly all forms of EBV latency and its associated cancers which plays a vital role in the maintenance of viral genome ([3]). EBNA1 is also important for the transcriptional activation of some other EBV latency genes ([4]). Homodimerization of EBNA1 is known to be critical for EBNA1–DNA binding and the subsequent functions of oriP (latent origin of replication), including viral DNA replication and segregation, maintenance of the EBV episomal genome, and transcriptional activation ([5]). Thus, EBNA1 not only serves as ...

[2] = test system: EBNA1 monomer homodimerization; settings: peptide P4; cited from earlier work
Excerpt: as §1

[3] = Fluorescence response toward Zn2+; assay type: binding; settings: 2 µM probe, excitation 337 nm
[4] = test system: HeLa xenograft; settings: 4 μg/injection every three days, 19 days, vs control
[5] = test system: C666-1 xenograft; assay: C666-1 xenograft, intratumoral injection; settings: 4 µg per injection twice weekly, 18 d, n = 5
[6] = test system: EBV-positive C666-1 and NPC43 cells; assay: Two-photon imaging, subcellular localization in EBV-positive cells; assay type: cell-based; settings: 10 µM, 3 h, two-photon λex 700 nm
[7] = test system: Rta, BMRF1, gp350/220 in NPC43 cells; assay: Western blot of lytic proteins in NPC43; assay type: cell-based, Epstein–Barr virus; settings: 10 µM, 7 d
Excerpt: Fig. 5. EBV lytic induction analysis of EBV-positive tumors and cells in response to the EBNA1 probes. (A) IHC analysis of lytic proteins Zta, BMRF1, and VCA-p18 in the transplanted C666-1–derived tumor tissues as described in Fig. 4 E–G. Representative results are shown. […] Insets (in the red boxes) are the enlarged images to indicate the cellular localization of the 3 proteins. Negative control staining images are included for the mouse antibodies (mAb) against Zta and BMRF1 and for the rat antibody (rAb) against VCA-p18. Magnification, 400×. […] TPA/NaB (20 ng/mL TPA, 3 mM NaB) serves as a positive control of lytic induction. The presence of these 4 lytic proteins is indicated by red signals. The nuclei were stained with DAPI. […] Acetylated histone H3 (Ac-Histone H3) was also detected. β-actin serves as the loading control. […] The gene expression was analyzed by qRT-PCR. The fold change of relative gene expression after each treatment was compared with the solvent control (DMSO). Data are expressed as the means ± CI.
Western blot analysis of Zta, Rta, BMRF1, and gp350/220 was performed as reported ([41]). The Rta antibody was supplied from Argene (Verniolle) and the β-actin antibody for loading control was supplied from Cell Signaling Technology. Antibodies against Zta, BMRF1, gp350/220, Dicer1, and PML were the ones used for IF staining. A 1:400 dilution of the primary antibodies was used.

[8] = test system: EBV-positive NPC43, C666-1 and Raji cells; assay: MTT cytotoxicity, EBV-positive cell panel; assay type: cell-based; settings: 1 to 20 µM, 5 d
[9] = test system: infectious EBV particles from HONE-1-EBV cells; assay: EBV infection assay (Raji cell assay, virions from HONE-1-EBV); assay type: cell-based, Epstein–Barr virus; settings: 10 µM, 4 d, triplicate, P = 0.009 (ZRL5P4), P = 0.06 (ZRL5P2)
[10] = target: the molecule itself; assay: self-association assay read by SDS-PAGE and anti-His Western blot

Molecule: CAhxYFMVFGGRrRK [P4]
- EBV-infected cell growth [1]: suppress EBV-infected cell growth
- EBNA1 homodimerization [2]: able to interfere with the homodimerization of the EBNA1 monomer

Molecule: YFMVF [ZRL5P2, rest of structure identical to ZRL5P4; negative control]
- Emission change upon addition of Zn2+ ([3]; 2 equiv. Zn2+, CH3CN/0.05 M Hepes pH 7.4, 50:50): slightly blue-shifted emission
- Maximum emission wavelength, without Zn2+ ([3]; CH3CN/0.05 M Hepes pH 7.4, 50:50, absence of Zn2+): 448 nm
- Maximum emission wavelength, with Zn2+ ([3]; CH3CN/0.05 M Hepes pH 7.4, 50:50, presence of Zn2+): 445 nm
- Body weights [4]: did not cause any significant changes in body weights
- Tumor growth [5]: did not significantly affect tumor growth
- Subcellular localization [6]: only found in the cytoplasm
- Rta and BMRF1 expression [7]: much weaker than those of ZRL5P4
- Growth-inhibitory effect, comparison [8]: the least efficient one
- Virion production versus DMSO control [9]: 2.6 fold

B1: Full-length EBNA1 (residues 1 to 641) with an N-terminal His tag (ab138345; Abcam) (natural protein)
chain: MSDEGPGTGPGNGLGEKGDTSGPEGSGGSGPQRRGGDNHGRGRGRGRGRGGGRPGAPGGSGSGPRHRDGVRRPQKRPSCIGCKGTHGGTGAGAGAGGAGAGGAGAGGGAGAGGGAGGAGGAGGAGAGGGAGAGGGAGGAGGAGAGGGAGAGGGAGGAGAGGGAGGAGGAGAGGGAGAGGGAGGAGAGGGAGGAGGAGAGGGAGAGGAGGAGGAGAGGAGAGGGAGGAGGAGAGGAGAGGAGAGGAGAGGAGGAGAGGAGGAGAGGAGGAGAGGGAGGAGAGGGAGGAGAGGAGGAGAGGAGGAGAGGAGGAGAGGGAGAGGAGAGGGGRGRGGSGGRGRGGSGGRGRGGSGGRRGRGRERARGGSRERARGRGRGRGEKRPRSPSSQSSSSGSPPRRPPPGRRPFFHPVGEADYFEYHQEGGPDGEPDVPPGAIEQGPADDPGEGPSTGPRGQGDGGRRKKGGWFGKHRGQGGSNPKFENIAEGLRALLARSHVERTTDEGTWVAGVFVYGGSKTSLYNLRRGTALAIPQCRLTPLSRLPFGMAPGPGPQPGPLRESIVCYFMVFLQTHIFAEVLKDAIKDLVMTKPAPTCNIRVTVCSFDDGVDLPPWFPPMVEGAAAEGDDGDDGDEGGDGDEGEEGQE
notes: source: bought: Abcam (ab138345); not shown: His tag, N-terminal, kept
- stoichiometry N [10]: 2
